Consider 13 compounds from patent publication EP2130831A1, “CDC25 inhibitors” (InterMed Discovery GmbH, priority 2008, dated 2009).

The test system of one test is DU145. The experiment in a line: Cell proliferation Assay (Alamar Blue), DU145. In kind it is cell-based. As to conditions: Homo sapiens, DU-145, 72 hrs. The method, then:
(§1) Used cell lines: HCT116; DU145; A549, H460 In a 96-well plate, 3000 cells/well were plated in 100 µl DMEM containing 10% FBS, 10 mM HEPES and 1% Penicllin/Streptomycin. To each well 50 µl of additional growth media containing the compound with 0.1% DMSO was added. Cells were grown for 72 hrs. at 37°C. 20 µl of Alamar Blue reagent was added and incubated for 3-5 hours until color develops. Plates were read in a SpectraMax Gemini (Molecular Devices, CA) with 544 nm excitation and 590 nm emission wavelength.

The target of the next test is T1, CDC25C (Homo sapiens, UniProt P30307).
T1 sequence (P30307 1-473): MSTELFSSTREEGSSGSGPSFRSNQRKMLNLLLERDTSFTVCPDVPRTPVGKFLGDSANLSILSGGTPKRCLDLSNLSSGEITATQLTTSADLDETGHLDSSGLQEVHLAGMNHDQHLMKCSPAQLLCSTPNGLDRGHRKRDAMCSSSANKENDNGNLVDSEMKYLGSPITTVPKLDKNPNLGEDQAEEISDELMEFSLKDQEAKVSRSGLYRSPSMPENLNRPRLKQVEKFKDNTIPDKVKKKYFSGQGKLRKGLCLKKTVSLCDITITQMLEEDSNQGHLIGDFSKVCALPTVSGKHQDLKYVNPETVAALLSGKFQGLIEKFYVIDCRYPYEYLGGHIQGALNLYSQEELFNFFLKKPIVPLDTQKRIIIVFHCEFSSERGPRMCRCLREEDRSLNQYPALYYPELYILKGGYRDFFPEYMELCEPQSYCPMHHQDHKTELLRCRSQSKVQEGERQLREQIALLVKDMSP
The experiment in a line: CDC25C Enzyme Assay (hydrolysis of fluorogenic substrate OMFP). The test is classed as biochemical. The method, then: The assay principle was hydrolysis of an artificial fluorogenic substrate of CDC25C, 3-0-methyl-fluorescein monophosphate (OMFP). […] The assay was performed in 96 well microtiter plates (Greiner 96 well black FIA plates) at ambient temperature.
The additions to the wells were as follows: 1 Addition of 4 µl of a DMSO solution of the test compound; controls received 4 µl of DMSO instead 2 Addition of 76 µl assay buffer (assay buffer: 100 mM Tris pH 8.2, 40 mM NaCl. 5 mM DTT, 20% glycerol) 3 Addition of 10 µl CDC25 C (CDC25 C in assay buffer; protein final concentration 1.1 µg/mL) 4 Start of reaction by addition of 10 µl OMFP (substrate in assay buffer; final concentration of OMFP in assay: 90 µM )
Ortho-vanadate was used as a reference inhibitor. Background controls contained buffer, substrate and DMSO, but no enzyme. The microtiter plates were analyzed using a Tecan Ultra fluorescence reader.

The test system of the next test is HCT116. The experiment in a line: Cell proliferation Assay (Alamar Blue), HCT116. As to conditions: Homo sapiens, HCT-116, 72 hrs. In kind it is cell-based. As for the experimental part:
as §1

For a further test, the system named is H460. The experiment in a line: Cell proliferation Assay (Alamar Blue), H460. In kind it is cell-based. Conditions: Homo sapiens, NCI-H460, 72 hrs. As for the experimental part: as §1
In general terms: The colour change of resazurin is a common sign of viable cells or microbes.

In the next test the target is T2, CDC25B (Homo sapiens, UniProt P30305).
T2 sequence (P30305 1-580): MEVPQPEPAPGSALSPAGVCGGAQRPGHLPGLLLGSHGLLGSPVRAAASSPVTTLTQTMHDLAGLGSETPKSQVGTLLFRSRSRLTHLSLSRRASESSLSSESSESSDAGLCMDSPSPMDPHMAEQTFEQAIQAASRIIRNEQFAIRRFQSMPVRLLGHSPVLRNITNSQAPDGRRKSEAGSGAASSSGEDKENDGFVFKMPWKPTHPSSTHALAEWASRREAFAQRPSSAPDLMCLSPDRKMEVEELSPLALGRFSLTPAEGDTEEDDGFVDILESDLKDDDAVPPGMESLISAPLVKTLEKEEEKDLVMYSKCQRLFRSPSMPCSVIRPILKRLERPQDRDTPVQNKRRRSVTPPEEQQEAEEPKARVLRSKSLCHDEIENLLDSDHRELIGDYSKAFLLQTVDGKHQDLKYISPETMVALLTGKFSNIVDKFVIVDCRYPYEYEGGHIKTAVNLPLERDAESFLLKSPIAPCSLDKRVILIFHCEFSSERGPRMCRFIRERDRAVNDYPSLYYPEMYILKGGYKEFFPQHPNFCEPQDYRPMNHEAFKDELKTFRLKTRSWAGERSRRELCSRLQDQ
Briefly: CDC25B inhibition assay (sub-type selectivity). In kind it is biochemical. Conditions: after 20 minutes of pre-incubation; read-out: IC50 against CDC25B. From the text:
(§2) The compound of example 5 was thoroughly characterized towards its selectivity for CDC25 sub-types A, B, and C.

The subject of the next test is A549. Briefly: Cell proliferation Assay (Alamar Blue), A549. In kind it is cell-based. As to conditions: Homo sapiens, 72 hrs. As for the experimental part: Used cell lines: HCT116; DU145; A549, H460 In a 96-well plate, 3000 cells/well were plated in 100 µl DMEM containing 10% FBS, 10 mM HEPES and 1% Penicllin/Streptomycin. To each well 50 µl of additional growth media containing the compound with 0.1% DMSO was added. Cells were grown for 72 hrs. at 37°C. 20 µl of Alamar Blue reagent was added and incubated for 3-5 hours until color develops. Plates were read in a SpectraMax Gemini (Molecular Devices, CA) with 544 nm excitation and 590 nm emission wavelength. Table #5: Results assay #2

The subject of test [1] is leukemia cell line (P388). The experiment in a line: In vitro cell assays against a leukemia cell line. The test is classed as cell-based. As to conditions: result in words.
The target of another test is T3, PTP1 B (Homo sapiens, UniProt P18031).
T3 sequence (P18031 1-435): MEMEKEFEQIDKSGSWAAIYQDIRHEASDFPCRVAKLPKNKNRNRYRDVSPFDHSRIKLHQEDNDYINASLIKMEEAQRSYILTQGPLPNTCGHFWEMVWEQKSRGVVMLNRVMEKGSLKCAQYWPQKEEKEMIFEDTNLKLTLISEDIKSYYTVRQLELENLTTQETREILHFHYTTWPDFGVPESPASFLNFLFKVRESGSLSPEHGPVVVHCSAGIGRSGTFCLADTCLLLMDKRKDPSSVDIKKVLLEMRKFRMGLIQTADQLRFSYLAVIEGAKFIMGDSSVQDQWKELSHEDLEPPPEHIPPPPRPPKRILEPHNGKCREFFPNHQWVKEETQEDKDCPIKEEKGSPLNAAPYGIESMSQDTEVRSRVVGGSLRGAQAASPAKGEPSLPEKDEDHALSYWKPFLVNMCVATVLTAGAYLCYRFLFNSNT
Briefly: Phosphatase counter-screen against PTP1 B. The test is classed as biochemical. (In general: A counterscreen serves to expose hits that act by an unwanted route or on another target.)

A further test addresses LAR (PTPRF) (Homo sapiens, UniProt P10586). The experiment in a line: Phosphatase counter-screen against LAR (PTPRF). The test is classed as biochemical.
In the next test the target is T4, CDC25A (Homo sapiens, UniProt P30304).
T4 sequence (P30304 1-524): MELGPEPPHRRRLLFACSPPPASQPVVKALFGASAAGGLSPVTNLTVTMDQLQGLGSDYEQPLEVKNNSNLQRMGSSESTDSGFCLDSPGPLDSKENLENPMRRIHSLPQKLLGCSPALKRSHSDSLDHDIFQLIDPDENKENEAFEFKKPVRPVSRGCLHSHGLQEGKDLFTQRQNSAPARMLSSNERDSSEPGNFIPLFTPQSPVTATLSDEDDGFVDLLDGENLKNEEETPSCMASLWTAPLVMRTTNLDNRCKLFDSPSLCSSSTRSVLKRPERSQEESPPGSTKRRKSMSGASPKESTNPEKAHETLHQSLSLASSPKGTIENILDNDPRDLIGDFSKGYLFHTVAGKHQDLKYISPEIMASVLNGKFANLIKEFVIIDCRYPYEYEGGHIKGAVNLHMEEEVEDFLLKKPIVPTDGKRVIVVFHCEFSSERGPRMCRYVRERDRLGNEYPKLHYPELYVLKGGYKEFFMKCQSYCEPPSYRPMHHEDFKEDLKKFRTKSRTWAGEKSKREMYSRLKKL
Briefly: CDC25A inhibition assay (sub-type selectivity). The test is classed as biochemical. As to conditions: after 20 minutes of pre-incubation; read-out: IC50 against CDC25A.
Excerpt: as §2

A further test has as its system CDC25. Conditions: literature reports; cited from earlier work.
[2] abbreviates: OMFP 90 µM, ambient temperature, assay run time 20 minutes, read-out: IC50.

Like-named read-outs stand apart in the source and are kept apart here.

LAR (PTPRF), sequence (P10586 30-1907, species assumed): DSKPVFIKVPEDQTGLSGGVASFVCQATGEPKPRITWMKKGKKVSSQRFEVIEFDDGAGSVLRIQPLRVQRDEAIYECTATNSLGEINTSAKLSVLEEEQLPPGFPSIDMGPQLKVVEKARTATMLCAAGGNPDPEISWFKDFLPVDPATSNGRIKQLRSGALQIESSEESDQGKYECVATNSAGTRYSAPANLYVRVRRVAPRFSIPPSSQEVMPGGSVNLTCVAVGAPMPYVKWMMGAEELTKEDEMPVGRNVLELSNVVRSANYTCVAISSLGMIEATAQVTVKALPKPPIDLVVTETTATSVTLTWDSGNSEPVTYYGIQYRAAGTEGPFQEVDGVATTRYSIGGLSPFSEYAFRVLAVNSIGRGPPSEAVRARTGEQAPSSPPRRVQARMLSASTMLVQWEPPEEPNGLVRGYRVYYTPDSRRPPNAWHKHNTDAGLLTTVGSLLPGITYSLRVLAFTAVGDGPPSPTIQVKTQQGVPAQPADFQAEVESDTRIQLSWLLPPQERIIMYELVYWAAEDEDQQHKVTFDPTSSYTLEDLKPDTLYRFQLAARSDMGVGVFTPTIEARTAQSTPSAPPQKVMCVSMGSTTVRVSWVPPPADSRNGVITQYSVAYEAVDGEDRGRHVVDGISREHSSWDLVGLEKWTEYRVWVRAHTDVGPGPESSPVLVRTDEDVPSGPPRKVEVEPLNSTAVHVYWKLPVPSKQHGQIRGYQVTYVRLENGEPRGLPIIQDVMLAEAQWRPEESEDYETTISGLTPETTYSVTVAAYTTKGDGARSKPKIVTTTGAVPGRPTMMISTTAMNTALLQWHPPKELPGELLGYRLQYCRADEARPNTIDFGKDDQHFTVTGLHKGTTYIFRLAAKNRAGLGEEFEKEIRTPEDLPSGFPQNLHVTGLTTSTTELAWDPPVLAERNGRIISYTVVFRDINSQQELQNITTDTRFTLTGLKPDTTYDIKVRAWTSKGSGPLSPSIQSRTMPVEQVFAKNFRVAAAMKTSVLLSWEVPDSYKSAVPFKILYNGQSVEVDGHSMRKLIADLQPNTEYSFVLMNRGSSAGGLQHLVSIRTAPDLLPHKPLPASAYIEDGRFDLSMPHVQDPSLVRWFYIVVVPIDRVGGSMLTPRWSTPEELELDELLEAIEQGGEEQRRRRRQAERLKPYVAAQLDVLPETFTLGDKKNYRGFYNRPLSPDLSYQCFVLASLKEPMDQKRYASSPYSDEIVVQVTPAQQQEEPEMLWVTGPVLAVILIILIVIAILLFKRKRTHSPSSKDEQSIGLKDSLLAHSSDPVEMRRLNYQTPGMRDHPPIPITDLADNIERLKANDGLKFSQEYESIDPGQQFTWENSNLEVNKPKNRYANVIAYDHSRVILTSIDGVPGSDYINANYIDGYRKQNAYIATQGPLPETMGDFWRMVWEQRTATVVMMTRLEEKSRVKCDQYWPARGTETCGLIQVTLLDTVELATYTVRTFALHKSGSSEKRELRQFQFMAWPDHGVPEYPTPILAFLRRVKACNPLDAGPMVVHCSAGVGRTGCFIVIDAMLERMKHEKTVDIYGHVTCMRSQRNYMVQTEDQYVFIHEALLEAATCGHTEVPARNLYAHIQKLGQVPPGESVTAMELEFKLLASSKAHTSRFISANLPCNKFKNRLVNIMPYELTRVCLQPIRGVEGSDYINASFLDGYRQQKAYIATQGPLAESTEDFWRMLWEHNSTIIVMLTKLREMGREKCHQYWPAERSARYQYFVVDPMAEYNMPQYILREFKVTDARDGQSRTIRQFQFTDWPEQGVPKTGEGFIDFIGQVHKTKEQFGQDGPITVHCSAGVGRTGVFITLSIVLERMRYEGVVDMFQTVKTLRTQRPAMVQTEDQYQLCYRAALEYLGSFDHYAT

The IC50 is the concentration at which inhibition is half-maximal. For the compound `Cc1cc(=O)n2c3c(c4c(cc13)c(CO)cc(=O)n4C)OC2` [Example 1, nybomycin], the half-maximal inhibitory concentration (IC50) with DU145 was 720 nM; at CDC25C (setting [2]), > 20000 nM; in the test on HCT116, 730 nM; with H460, 230 nM.

As to `Cc1cc(=O)n(C)c2c3c4c(cc12)c(C)cc(=O)n4CO3` [Example 2, deoxynybomycin], the IC50 at CDC25C (setting [2]) was > 10000 nM.

Consider `Cc1cc(=O)n(C)c2c3c4c(c(C)cc(=O)n4CO3)c(O)c12` [Example 3, 7-hydroxy-deoxynybomycin], for which the IC50 at CDC25C (setting [2]) amounted to 5000 nM.

As for `Cn1c(=O)cc(CO)c2cc3c(CO)cc(=O)n4c3c(c21)OC4` [Example 4, 6'-hydroxynybomycin], the IC50 on CDC25C (setting [2]) worked out at 14000 nM.

On to `Cc1cc(=O)[nH]c2c(O)c3c(cc12)c(C)cc(=O)n3C` [Example 5, 10-hydroxy-1,4,6-trimethylpyndo[3,2-g]quino-line-2,8(1H,9H)-dione], for which the IC50 on CDC25B was 230 nM; in the test on A549, 100 nM; in the test with DU145, 100 nM; at CDC25C (after 20 minutes of pre-incubation, read-out: IC50 against CDC25C) it was 180 nM; at CDC25A it was 150 nM; in the test on HCT116 it was 100 nM. Moreover, in the test on H460, the IC50 was < 300 nM. Also, in test [1], the “potential as inhibitors of CDC25 compared with the comparative examples (1, 2, 3, 4, 6 and 9)” value is “much higher potential”. In addition, the “selectivity for CDC25 subtypes in comparison to PTP1 B” value at PTP1 B worked out at 13 fold. The “selectivity for CDC25 subtypes in comparison to LAR” value at LAR (PTPRF) is given as 100 fold.

Consider `Cc1cc(=O)n(C)c2c(O)c3c(cc12)c(C)cc(=O)n3C` [Example 6, 10-hydroxy-1,4,6,9-tetramethylpyrido[3,2-g]-quinoline-2,8(1H,9H)-dione], for which the IC50 with A549 was < 10000 nM; with DU145, 3000 nM; at CDC25C (setting [2]), 14500 nM; with HCT116, 3000 nM; in the test with H460, < 10000 nM.

As for `Cc1cc(=O)[nH]c2c(O)c3c(cc12)c(CO)cc(=O)n3C` [Example 7, 10-hydroxy-4-(hydroxymethyl)-1,6-dimethyl-pyrido[3,2-g]quinoline-2,8(1H,9H)-dione], in test [1], the “potential as inhibitors of CDC25 compared with the comparative examples (1, 2, 3, 4, 6 and 9)” value is reported as “much higher potential”. Further, the IC50 at CDC25C (setting [2]) was determined as 930 nM.

As to `Cc1cc(=O)n(C)c2c(O)c3c(cc12)c(C)cc(=O)n3O` [Example 8, 1,10-dihydroxy-4,6,9-trimethylpyrido[3,2-g]-quinoline-2,8(1H,9H)-dione], in test [1], the “potential as inhibitors of CDC25 compared with the comparative examples (1, 2, 3, 4, 6 and 9)” value is “much higher potential”. Besides, on CDC25C (setting [2]), the IC50 came to 520 nM.

`CCCc1c2c([nH]c(=O)c1C)C(=O)c1[nH]c(=O)c(C)c(CCC)c1C2=O` [Example 9, 3,7-dimethyl-4,6-dipropylpyrido[3,2-g]-qujnoline-2,5,8,10(1H,9H)-tetraone; Diazaquinomycin A]: the IC50 on CDC25C (setting [2]) turned out to be 225000 nM.

Consider `CCCc1c(C)c(=O)[nH]c2c(O)c3[nH]c(=O)c(C)c(CCC)c3cc12` [Example 10, 10-hydroxy-3,7-dimethyl-4,6-dipropylpyrido-[3,2-g]quinoline-2,8(1H,9H)-dione], for which, in test [1], the “potential as inhibitors of CDC25 compared with the comparative examples (1, 2, 3, 4, 6 and 9)” value was “much higher potential”. At CDC25C (setting [2]), the half-inhibitory concentration (IC50) was found to be 850 nM.

As for `C=C(C)CCC[C@]1(C)CCC[C@@H]2C1=CC[C@@H](C)[C@@]2(C)C[C@@H](O)C1=CC(=O)O[C@H]1O` [dysidiolide], the “inhibit CDC25” value in the test on CDC25 was “micromolar levels”.

On to coscinosulfate, for which the “inhibit CDC25” value in the test on CDC25 is on record as “micromolar levels”.

As for nocardione, the “inhibit CDC25” value with CDC25 was “micromolar levels”.
